Laboratory results taken from the supplement of paper PMC11061612.

How the values were obtained:
[1] = tested on: WM278 (Melanoma); assay: Bliss excess, mean over the matrix (fraction); higher = more synergy
In short: (§1)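 Cell lines grown in DMEM/F12 or RPMI with 10% FBS were plated in 1536-well plates and held 24 hours at 37°C, 5% CO2 before 72 hours of exposure to two-drug dose matrices, with DMSO typically at 0.2%. CellTiter-Glo 2.0 luminescence gave viability, which was converted to inhibition. Vehicle wells were set to 0 and blank wells to 1. Combination Emax is the second-highest inhibition in the matrix, and Bliss excess is the observed combination effect minus the expected EA + EB − EA·EB, where EA and EB are the single-agent effects.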

[2] = tested on: SF268 (Low Grade Glioma); assay: as above
In short: as §1

[3] = tested on: PSN1 (Pancreatic Carcinoma); assay: as above
In short: as §1

[4] = tested on: REH (B-Lymphoblastic Leukemia); assay: as above
In short: as §1

[5] = tested on: LK-2 (Squamous Cell Lung Carcinoma); assay: as above
In short: as §1

[6] = tested on: OAW-42 (Ovarian Carcinoma); assay: as above
In short: as §1

[7] = tested on: MFE-280 (Endometrial Carcinoma); assay: as above
In short: as §1

[8] = tested on: CAL-62 (Thyroid Gland Carcinoma); assay: as above
In short: as §1

[9] = tested on: SK-PN-DW (Other Solid Carcinomas); assay: as above
In short: as §1

[10] = tested on: IST-MES1 (Mesothelioma); assay: as above
In short: as §1

[11] = tested on: OVMIU (Ovarian Carcinoma); assay: as above
In short: as §1

[12] = tested on: VAL (B-Cell Non-Hodgkin's Lymphoma); assay: as above
In short: as §1

[13] = tested on: NCI-H2342 (Lung Adenocarcinoma); assay: as above
In short: as §1

[14] = tested on: SHP-77 (Small Cell Lung Carcinoma); assay: as above
In short: as §1

[15] = tested on: GB-1 (Glioblastoma); assay: as above
In short: as §1

[16] = tested on: CAL-120 (Breast Carcinoma); assay: as above
In short: as §1

[17] = tested on: GP5d (Colorectal Carcinoma); assay: as above
In short: as §1

[18] = tested on: RKN (Other Solid Carcinomas); assay: combination Emax (second highest fraction inhibited in the dose matrix, 72 h); higher = more inhibition; extreme values may be limits of the assay
In short: as §1

[19] = tested on: HSC-39 (Gastric Carcinoma); assay: as above
In short: as §1

[20] = tested on: LXF-289 (Lung Adenocarcinoma); assay: as above
In short: as §1
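Wherever Bliss excess, mean over the matrix is given: after 72 h of two-drug dosing.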

Compound | Bliss excess [1] | Bliss excess [2] | Bliss excess [3] | Bliss excess [4] | Bliss excess [5] | Bliss excess [6] | Bliss excess [7] | Bliss excess [8] | Bliss excess [9] | Bliss excess [10] | Bliss excess [11] | Bliss excess [12] | Bliss excess [13] | Bliss excess [14] | Bliss excess [15] | Bliss excess [16] | Bliss excess [17] | combination Emax [18] | combination Emax [19] | combination Emax [20]
Cc1nc(Nc2ncc(C(=O)Nc3c(C)cccc3Cl)s2)cc(N2CCN(CCO)CC2)n1 [Dasatinib] + CC(=O)Nc1cccc(-n2c(=O)n(C3CC3)c(=O)c3c(Nc4ccc(I)cc4F)n(C)c(=O)c(C)c32)c1 [Trametinib] (first compound max 2 µM, 7x7, partner max 1 µM) | 0.162 | -0.073 | 0.0121 | -0.0421 | 0.0113 | 0.0199 | -0.0004 | 0.163 | -0.0292 | 0.0328 | -0.0298 | -0.0543 | -0.0578 | -0.0238 | 0.121 | 0.032 | -0.0254 | 0.712 | 0.498 | 0.986
COc1cc2ncnc(Nc3ccc(F)c(Cl)c3)c2cc1OCCCN1CCOCC1 [Gefitinib] + CC(C)n1c(=O)n(C)c2cnc3cc(F)c(-c4ccc(OCCCN5CCCCC5)nc4)cc3c21 [AZD1390] (first compound max 10 µM, 7x7, partner max 0.3 µM) | -0.0728 | -0.0727 | -0.0338 | -0.0498 | 0.0037 | -0.0384 | -0.0676 | -0.0451 | -0.0293 | -0.0524 | -0.0564 | -0.0608 | -0.052 | -0.0471 | -0.0815 | -0.0446 | -0.0359 | 0.175 | 0.217 | 0.0907
CS(=O)(=O)CCNCc1ccc(-c2ccc3ncnc(Nc4ccc(OCc5cccc(F)c5)c(Cl)c4)c3c2)o1 [Lapatinib] + C[C@@H](Oc1cc(-c2cnn(C3CCNCC3)c2)cnc1N)c1c(Cl)ccc(F)c1Cl [Crizotinib] (first compound max 10 µM, 7x7, partner max 10 µM) | -0.0284 | -0.056 | -0.0443 | -0.0347 | 0.0067 | -0.0033 | -0.0226 | -0.0436 | -0.0722 | -0.0937 | -0.0097 | -0.0531 | -0.0006 | -0.0004 | -0.11 | 0.0084 | -0.0036 | 0.294 | 0.981 | 1
CC(=O)c1c(C)c2cnc(Nc3ccc(N4CCNCC4)cn3)nc2n(C2CCCC2)c1=O [Palbociclib] + CC1(C)CCC(CN2CCN(c3ccc(C(=O)NS(=O)(=O)c4ccc(NCC5CCOCC5)c([N+](=O)[O-])c4)c(Oc4cnc5[nH]ccc5c4)c3)CC2)=C(c2ccc(Cl)cc2)C1 [Venetoclax] (first compound max 10 µM, 7x7, partner max 1 µM) | -0.0338 | -0.0344 | -0.0149 | -0.0446 | -0.0179 | -0.0365 | -0.068 | -0.029 | -0.0063 | -0.0203 | -0.0402 | -0.0109 | -0.0564 | 0.0543 | -0.0448 | -0.0523 | -0.011 | 0.102 | 0.633 | 0.225
CC(=O)c1c(C)c2cnc(Nc3ccc(N4CCNCC4)cn3)nc2n(C2CCCC2)c1=O [Palbociclib] + Cc1c2c(nn1C)CSCc1cc(n(C)n1)CSc1cc(c3ccccc3c1)OCCCc1c(C(=O)O)n(C)c3c-2c(Cl)ccc13 [AZD5991] (first compound max 10 µM, 7x7, partner max 1 µM) | -0.0395 | 0.0193 | -0.0111 | -0.0213 | 0.0076 | 0.0143 | -0.0333 | -0.0047 | -0.0194 | -0.0111 | -0.0416 | 0.0533 | -0.0063 | -0.0247 | -0.102 | -0.0209 | -0.069 | 0.151 | 0.995 | 0.6
CC(=O)c1c(C)c2cnc(Nc3ccc(N4CCNCC4)cn3)nc2n(C2CCCC2)c1=O [Palbociclib] + Cn1cnc2c(F)c(Nc3ccc(Br)cc3Cl)c(C(=O)NOCCO)cc21 [Selumetinib] (first compound max 10 µM, 7x7, partner max 10 µM) | -0.0152 | -0.0269 | 0.0226 | -0.0229 | 0.0281 | -0.0555 | -0.0255 | 0.0248 | -0.0164 | -0.0799 | -0.0097 | 0.0029 | -0.0441 | 0.0052 | -0.0016 | -0.0361 | -0.0062 | 0.399 | 0.667 | 0.297
COc1cccc(OCCCN)c1-c1cc(Nc2cnc(C#N)cn2)n[nH]1 [Prexasertib] + CCc1c2c(nc3ccc(O)cc13)-c1cc3c(c(=O)n1C2)COC(=O)[C@]3(O)CC [SN-38] (first compound max 1 µM, 7x7, partner max 0.3 µM) | -0.0479 | 0.0097 | 0.0569 | -0.0054 | 0.0915 | -0.0263 | 0.115 | -0.0543 | -0.0672 | -0.026 | -0.0921 | -0.0702 | -0.0703 | 0.121 | -0.0438 | 0.0574 | -0.0173 | 0.966 | 1 | 0.787
C[C@@H](c1ccc2nccn2c1)n1nnc2ncc(-c3cnn(C)c3)nc21 [Savolitinib] + CC1(C)CCC(CN2CCN(c3ccc(C(=O)NS(=O)(=O)c4ccc(NCC5CCOCC5)c([N+](=O)[O-])c4)c(Oc4cnc5[nH]ccc5c4)c3)CC2)=C(c2ccc(Cl)cc2)C1 [Venetoclax] (first compound max 1 µM, 7x7, partner max 1 µM) | -0.0614 | -0.095 | -0.0411 | -0.0192 | -0.0137 | -0.024 | -0.044 | -0.0246 | -0.0349 | -0.0318 | -0.0569 | -0.0305 | -0.0631 | -0.0623 | -0.0626 | -0.0804 | -0.0572 | 0.195 | 0.197 | 0.16
C[C@@H](c1ccc2nccn2c1)n1nnc2ncc(-c3cnn(C)c3)nc21 [Savolitinib] + Cc1c2c(nn1C)CSCc1cc(n(C)n1)CSc1cc(c3ccccc3c1)OCCCc1c(C(=O)O)n(C)c3c-2c(Cl)ccc13 [AZD5991] (first compound max 1 µM, 7x7, partner max 1 µM) | -0.0386 | -0.0595 | -0.0182 | -0.0369 | 0.007 | -0.0474 | -0.052 | -0.022 | -0.0656 | -0.0435 | -0.0415 | -0.0491 | 0.0288 | -0.0662 | -0.0495 | -0.0387 | -0.0912 | 0.117 | 0.99 | 0.306
Cn1cnc2c(F)c(Nc3ccc(Br)cc3Cl)c(C(=O)NOCCO)cc21 [Selumetinib] + C=CCn1c(=O)c2cnc(Nc3ccc(N4CCN(C)CC4)cc3)nc2n1-c1cccc(C(C)(C)O)n1 [AZD1775] (first compound max 10 µM, partner max 1 µM) | -0.0183 | -0.125 | -0.0321 | -0.0424 | -0.0356 | -0.0694 | -0.0485 | 0.0273 | 0.0095 | -0.0955 | -0.0888 | -0.052 | -0.0366 | 0.0141 | -0.0522 | -0.0502 | -0.0796 | 0.42 | 0.82 | 0.514
Cn1cnc2c(F)c(Nc3ccc(Br)cc3Cl)c(C(=O)NOCCO)cc21 [Selumetinib] + CC(C)n1c(=O)n(C)c2cnc3cc(F)c(-c4ccc(OCCCN5CCCCC5)nc4)cc3c21 [AZD1390] (first compound max 10 µM, 7x7, partner max 0.3 µM) | -0.0352 | -0.0693 | -0.0639 | -0.0323 | 0.007 | -0.0392 | -0.0427 | -0.0319 | -0.0289 | -0.0382 | -0.0444 | -0.0424 | -0.0489 | -0.0038 | -0.0574 | -0.0388 | 0.0142 | 0.379 | 0.201 | 0.146
Cn1cnc2c(F)c(Nc3ccc(Br)cc3Cl)c(C(=O)NOCCO)cc21 [Selumetinib] + CCN(CCO)CCCOc1ccc2c(Nc3cc(CC(=O)Nc4cccc(F)c4)[nH]n3)ncnc2c1 [AZD2811] (first compound max 10 µM, 7x7, partner max 1 µM) | -0.0003 | -0.027 | -0.0501 | -0.0464 | -0.0937 | -0.011 | -0.0767 | 0.0427 | -0.0744 | -0.0718 | -0.038 | -0.0614 | -0.0569 | 0.0447 | -0.0512 | -0.0065 | -0.0153 | 0.352 | 0.903 | 0.514
Cn1cnc2c(F)c(Nc3ccc(Br)cc3Cl)c(C(=O)NOCCO)cc21 [Selumetinib] + C[C@@H]1COCCN1C2=NC(=NC(=C2)C3(CC3)[S@](=N)(=O)C)C4=C5C=CNC5=NC=C4 [AZD6738] (first compound max 10 µM, 7x7, partner max 10 µM) | 0.0642 | -0.0382 | -0.0193 | -0.0612 | 0.0613 | -0.0257 | -0.0651 | 0.0142 | -0.0011 | -0.0374 | -0.0084 | -0.0657 | -0.0577 | 0.0421 | -0.0347 | 0.0117 | 0.0209 | 0.45 | 0.994 | 0.591
CC(=O)Nc1cccc(-n2c(=O)n(C3CC3)c(=O)c3c(Nc4ccc(I)cc4F)n(C)c(=O)c(C)c32)c1 [Trametinib] + Cc1nc(-c2cn3c(n2)-c2ccc(-c4cnn(C(C)(C)C(N)=O)c4)cc2OCC3)n(C(C)C)n1 [Taselisib] (first compound max 1 µM, 7x7, partner max 10 µM) | 0.13 | 0.0152 | 0.0665 | 0.0939 | 0.0821 | 0.109 | 0.021 | 0.15 | -0.0286 | 0.0469 | 0.0474 | 0.101 | 0.0446 | 0.107 | 0.159 | 0.0676 | -0.0186 | 0.544 | 1 | 0.963
